One data set deals with OCI-Ly3 cells. As to the kind of experiment: Inhibition of proliferation of OCI-Ly3 cells (CellTiter-Glo). Type of data set: cell-based, human. The following applies: Homo sapiens, 96 h incubation, read-out: Inhibition test of proliferation of OCI-Ly3 cells IC50. In short, it runs like this: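 OCI-Ly3 cells were plated and dosed the next day with 9 concentrations in 3-fold dilutions from 1000 nM to 0.15 nM. Cells were incubated 96 h, and viability was read by CellTiter-Glo luminescence. IC50 was fitted by four-parameter variable-slope log(inhibitor)-response regression.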

Data set [1] in a line: Pharmacokinetics of oral administration in Balb/C mice. It counts as in vivo. To be noted: male, mouse, po, 30 mg/kg, P.O., plasma; for AUC(0-t): read-out: AUC 0-t; for Cmax: read-out: Cmax; for MRT: read-out: MRT; for Tmax: read-out: Tmax. In a few lines: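 Male Balb/C mice (n=3), fasted overnight, dosed orally at 30 mg/kg. Orbital plasma sampled at 0, 0.5, 1, 2, 4, 6, 8 and 24 h, acetonitrile-precipitated, and analysed by LC/MS/MS (C18, formic acid/acetonitrile); PK parameters by non-compartmental-style software analysis.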

A short description of data set [2]: Caco-2 bidirectional permeability test. To be noted: human, Caco-2.
Experimental: The purpose of this experiment is to test the bidirectional permeability of the compound through the Caco-2 cell model and evaluate whether the compound is transported by efflux transporters.
Liquid chromatography-mass spectrometer, centrifuge, vortexer, pipette, 96-well test plate (HTS Transwell Plate), acetonitrile solution containing internal standard, Caco-2 cells (ATCC), Hank's balance solution (HBSS), fluorescent yellow (LY), dimethyl sulfoxide (DMSO).
108 μL of transport buffer (HBSS containing 10 μM of the example compound) was added to the administration end of A to B. • b. 300 μL of transport buffer (HBSS containing DMSO) was added to the receiving end of A to B. • c. 300 μL of transport buffer (HBSS containing 10 μM example compound) was added to the administration end of A to B. • d. 108 μL of transport buffer (HBSS containing DMSO) was added to the receiving end of A to B. • e. incubation was performed for 90 min. • d. a sample was taken, processed and detected with mass spectrometry.
• Instruments: Liquid Chromatography; • Chromatographic column: Waters XSelect HSS T3 2.5 μm (2.1×50 mm); • Mobile phase: Phase A: 0.1% formic acid in pure water; Phase B: 0.1% formic acid in acetonitrile.
• Instruments: AP16500+liquid chromatography-mass spectrometer; • The ion source is electrospray ionization source (ESI); • The detection method is positive ion detection;
The scanning method is selected reaction monitoring (MRM).

Turning to `O=C(Nc1cnc(-n2nccn2)c(C(F)(F)F)c1)c1cnn(-c2ccc3c4c(cccc24)C(=O)N3)c1C(F)(F)F` [Example 18, N-(6-(2H-1,2,3-triazol-2-yl)-5-trifluoromethylpyridin-3-yl)-1-(2-oxo-1,2-dihydrobenzo[cd]indol-6-yl)-5-trifluoromethyl-1H-pyrazole-4-carboxamide], the IC50 in the data set with OCI-Ly3 cells came out at 0.088 µM. Moreover, in data set [1], the AUC(0-inf) came to 222 µg·h/mL, the half-life was 1.9 h, the AUC(0-t) stood at 222 µg·h/mL and the Cmax is 22900 ng/mL. In addition, in data set [1], the MRT is 5.4 h and the time to peak (Tmax) is 2 h.
Take `O=C(Nc1ccc(-n2nccn2)c(Cl)c1)c1cnn(-c2ccc3c4c(cccc24)C(=O)N3)c1C(F)(F)F` [Example 53, N-(3-chloro-4-(2H-1,2,3-triazol-2-yl)phenyl)-1-(2-oxo-1,2-dihydrobenzo[cd]indol-6-yl)-5-(trifluoromethyl)-1H-pyrazole-4-carboxamide]: in the data set with OCI-Ly3 cells, the IC50 was 0.101 µM. Further, in data set [2], the Papp A→B at 90 min, 10 µM amounted to 1.58 ×10⁻⁶ cm/s; the Papp B→A at 90 min, 10 µM is 4.68 ×10⁻⁶ cm/s; the efflux ratio at 90 min, 10 µM was 2.95. Further, in data set [1], the AUC(0-t) was 256 µg·h/mL, the Cmax was determined as 14100 ng/mL and the Tmax is 8 h.
Consider `O=C(Nc1ccnc(C(F)(F)F)c1)c1cnn(-c2ccc3c4c(cccc24)C(=O)N3)c1C1CC1` [Example 55, 5-cyclopropyl-1-(2-oxo-1,2-dihydrobenzo[cd]indol-6-yl)-N-(2-(trifluoromethyl)pyridin-4-yl)-1H-pyrazole-4-carboxamide], for which the IC50 with OCI-Ly3 cells was 0.211 µM. In addition, in data set [2], the Papp A→B at 90 min, 10 µM worked out at 2.09 ×10⁻⁶ cm/s; the Papp B→A at 90 min, 10 µM turned out to be 4.08 ×10⁻⁶ cm/s; the efflux ratio at 90 min, 10 µM is 1.97. For the same compound, in data set [1], the AUC(0-inf) was found to be 472 µg·h/mL, the half-life was 8.6 h, the exposure AUC(0-t) was determined as 401 µg·h/mL and the Cmax was 28300 ng/mL. Further, in data set [1], the MRT is 12.2 h and the Tmax was found to be 4 h.

The record behind these values is patent US20250059196A1 (SHANGHAI HANSOH BIOMEDICAL CO., LTD., priority 2021, published 2025).
